Data from US20030153611A1, “1,3-Diarylprop-2-en-1-ones, compositions containing them and use thereof” (AVENTIS PHARMA S.A., priority 2001, published 2003).
Where a name gives a salt, the structure may show the parent alone.

Legend:
[1] = test system: HDMEC cells; assay: Detachment effect on HDMEC endothelial cells; format: cell-based, Human; conditions: 1 μM, treatment for two hours
Source text: A test to determine the detachment of endothelial cells was established in order to select the products on the basis of their “in vitro” activity. This test for determining the endothelial cell detachment is characterized in that the endothelial cells, inoculated in plates which are coated at the bottom with a binder, e.g., chosen from gelatin, fibronectin or vitronectin, after culturing, are supplemented with a medium containing the test compound, and the cells are then labeled with a fluorescent substance, the cells which become detached are removed by washing and the fluorescence of the remaining cells is counted in a fluorimeter.
This test consists in measuring the detachment of endothelial cells cultured on substrates based on a binder, e.g., chosen from fibronectin, vitronectin and gelatin. One day after inoculating the cells in plates containing 96 wells, for example, the culture medium is replaced with a medium containing the test compound in the absence of serum. The same preparation is prepared six times at three different concentrations ([…]) and the control without addition of antivascular product is prepared six times. After treatment for two hours with the test substance, the cells are labeled with calcein-AM (1.6 μg/ml) in a culture medium supplemented with 0.1% BSA. The cells which become detached are removed by washing with the culture medium containing 0.1% bovine serum albumin; 100 μl of medium are added to each well. The fluorescence of the remaining cells is counted in a fluorimeter. The data obtained are expressed relative to the control (untreated cells).
(§1) The assessment of the detachment of the endothelial cells in vitro is determined in the following way. HDMEC cells (Human Dermal Microvascular Endothelial Cells, Promocell, c-122102) are cultured in an ECGM-MV medium containing 5% fetal calf serum, growth factors (EGF 10 ng/ml, hydrocortisone 1 μg/ml, 0.4% growth supplement with heparin) and antibiotics (amphotericin 50 ng/ml, gentamicin 50 μg/ml). For the detachment test, the HDMECs are inoculated at a rate of 5 000 cells in clear-bottomed 96-well plates (Costar) precoated with fibronectin (10 μg/ml) or vitronectin (1 μg/ml) or gelatin. Twenty-four hours later, the culture medium is replaced with 0.1% BSA ECGM-MV medium containing the indicated products. The test concentrations are 0.1-0.3 and 1 μM for each product. After treatment for two hours, the cells are labeled for 1 hour with calcein (1.6 μg/ml, Molecular Probes) in 0.1% BSA ECGM-MV medium. The detached cells are then removed by washing with 0.1% BSA ECGM-MV medium; 100 μl of medium are added to each well. The fluorescence of the cells which remain attached to the substratum of the well is counted using a fluorimeter, Spectrafluor Plus (Tecan, excitation at 485 nm, and emission at 535 nm). The data are the average of six different samples and are expressed as a percentage of the control (untreated cells).
A cell detachment effect of greater than or equal to 15% is considered as significant.
as §1, with “(amphotericine” for “(amphotericin”, “The detached cells are then removed by washing with 0.1% BSA ECGM-MV medium; 100 μl of medium are added to each well. The fluorescence of the cells which remain attached to the substratum of the well is counted using a fluorimeter, Spectrafluor Plus (Tecan, excitation at 485 nm, and emission at 535 nm). The data are the average of six different samples and are expressed as a percentage of the control (untreated cells).” left out

[2] = test system: C51 murine adenocarcinoma; assay: Assessment of the tumor necrosis in vivo; conditions: intravenous injection, 24 hours after treatment, female BALB/c mice
Source text: Mice are bred by IFFA-CREDO (Domaine des Oncins, 69210 L'Arbresle, France) from a race obtained by Jackson Laboratories, Bar Harbor, Me., USA, or by Charles River France (76410 St Aubin les Elbeuf, France) from a race obtained by Charles River, USA. The mice initially weigh more than 18 g at the start of the test. They have free access to food (UAR reference 113, Villemoisson, 91160 Epinay sur Orge, France) and water.
The tumors used are currently transplanted in our laboratories. All these tumors are at the Frederick Cancer Research Facility (Frederick, Md., USA) in the frozen tumor deposit of the National Cancer Institute (NCl) or at the American Type Culture Collection (ATCC, Rockville, Md., USA).
The tumor transplantation techniques, the chemotherapy and the data analysis are presented in detail (Corbett et al. 1982a; Corbett et al., 1982b).
To summarize, the animals required for an experiment are assembled and implanted bilaterally on day 0 (zero).
The growth of the solid tumors develops freely up to the desired size. The mice are then treated by intravenous injection of a test compound in solution.
The sampling of tumors is usually (but not necessarily) carried out 24 hours after the treatment.
The mice are killed by […]. The implanted tumors, along with the skin covering them and the neighboring tissues, are collected and stored in 10% formaldehyde (v/v) (Carlo Erba, Val de Reuil, France).
The samples are then treated, sectioned, stained with hematoxylin, eosin and saffron yellow, and are then examined […]. The tumor necrosis (necrosis±degeneration) is assessed microscopically using a scale of magnitude from 0 to 5:
The values assigned to the tumor necrosis 24 hours after administration of the test compound correspond solely to a necrosis dependent on the product which may be differentiated with certainty from any existing necrosis arising from the experiment.
The necrosis due to the experiment was assessed on an untreated control.
The tumor model is a C51 murine adenocarcinoma. This colon tumor is a grade III mucous colon […]. It is maintained by serial subcutaneous passages every 18 days in female BALB/c mice. The experiments were carried out on female BALB/c mice.

[3] = test system: HeLa cells; assay: Inhibition of proliferation of HeLa cells ([14C]-thymidine incorporation); format: cell-based; conditions: Homo sapiens, incubation for 48 hours, read-out: Inhibition of cell proliferation IC50 HeLa
Experimental: The proliferation of HeLa cells is assessed by measuring the incorporation of [^14C]-thymidine in the following way. The HeLa cells (epithelial tumor cells of human origin) are cultured in a DMEM medium (Gibco) which contains 10% fetal calf serum and antibiotics (1% penicillin, 1% streptomycin). To carry out the proliferation test, the cells are inoculated into 96-well cytostar microplates (Amersham), at a rate of 5 000 cells per well. [^14C]-thymidine (0.1 μCi/well) and the products to be assessed are then added. Variable concentrations of products up to 10 μM are used; the DMSO (solvent used to dissolve the products) should not exceed 0.5% in the medium. After incubation for 48 hours at 37° C., the radioactivity incorporated into the cells is measured by counting the plate in a TRI-LUX counter (Wallac). The IC50 value is defined as the concentration of product which reduces the radioactivity by 50% relative to an untreated control. A product whose IC50 value is less than 1 μM is considered as cytotoxic.

[4] = test system: HDMEC; assay: Inhibition of cell proliferation, HDMEC; format: cell-based; conditions: Homo sapiens

| SMILES | Percentage of detachment of HDMEC cells induced with the compound at a concentration of 1 μM [1] [%] | C51 colon tumor necrosis in vivo (grade) ([2]; 25 mg/kg) | IC50 [3] [µM] | IC50 [4] [µM] | C51 colon tumor necrosis in vivo (grade) ([2]; 12.5 mg/kg) |
| --- | --- | --- | --- | --- | --- |
| COc1cc(C(=O)/C(C)=C/c2ccc3c(ccn3C)c2)cc(OC)c1OC [Example 5, E-2-Methyl-3-(1-methyl-1-H-indol-5-yl)-1-(3,4,5-trimethoxyphenyl)propenone] | 32 | Grade 5 at 25 (5=large, >75%) | 0.005 to 0.01 | 0.03 |  |
| COc1ccc(/C=C(\C)C(=O)c2cc(OC)c(OC)c(OC)c2)cc1NC(=O)[C@@H](N)CO [Example 13, (S)-2-Amino-3-hydroxypropanoic acid {2-methoxy-5-[2-methyl-3-oxo-3-(3,4,5-trimethoxyphenyl)propenyl]phenyl}amide hydrochloride] | 31 |  | 0.1 | 0.03 | Grade 5 at 12.5 (5=large, >75%) |
